Laboratory results as given in US20240025906A1 (NEURON23, INC., priority 2022, published 2024).
Like-named read-outs stand apart in the source and are kept apart here.

Key:
TYK2 JH2 = biological target: T1, TYK2 JH2 (Homo sapiens, UniProt P29597); assay: TYK2 JH2 binding assay (KINOMEscan KdELECT competitive binding); settings: TYK2 JH2 domain
T1 construct: purchased DiscoverX (KINOMEscan KdELECT service); host or cells: E. coli BL21-derived (T7 phage display) or HEK-293
Outline: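 Kd values come from qPCR measurement of kinase retained on an immobilized-ligand resin after 1 h room-temperature competition with compound in an 11-point, 3-fold series.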

[1] = tested on: JAK1/TYK2 pSTAT5 (Tyr694/699) in THP-1 cell line; assay: IFNa-stimulated JAK1/TYK2 pSTAT5 (Tyr694/699) inhibition cellular assay, AlphaLISA; format: cell-based; settings: THP-1 cells, AlphaLISA (Assay B)
Outline: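 THP-1 cells (2e4/well) in HBSS preincubated 1 h at 37° C. with compound (final 10000–0.04 nM, 8 points, 6-fold), then stimulated with IFNa (100 ng/mL stock) for 30 min before lysis. pSTAT5 (Tyr694/699) read by AlphaLISA at 615 nm; IC50 from four-parameter logistic fit with bottom fixed at 0 and Hill slope at −1.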

[2] = KINOMEscan KdELECT (Assay A), read-out: Biochemical TYK2_DiscoverX_JH2_BND_Kd
[3] = Homo sapiens, IFNa-stimulated, read-out: Cellular_THP1_IFNa-pSTATS_TYK2
[4] = DiscoverX KINOMEscan KdELECT (Assay A), read-out: Biochemical TYK2_DiscoverX_JH2_BND_Kd
[5] = KINOMEscan KdELECT (Assay A), read-out: Biochemical TYK2_JH2_Kd
[6] = Homo sapiens, IFNa-stimulated, read-out: Cellular THP1_IFNa-pSTATS_IC50

T1 sequence (P29597 589-875 limits assumed): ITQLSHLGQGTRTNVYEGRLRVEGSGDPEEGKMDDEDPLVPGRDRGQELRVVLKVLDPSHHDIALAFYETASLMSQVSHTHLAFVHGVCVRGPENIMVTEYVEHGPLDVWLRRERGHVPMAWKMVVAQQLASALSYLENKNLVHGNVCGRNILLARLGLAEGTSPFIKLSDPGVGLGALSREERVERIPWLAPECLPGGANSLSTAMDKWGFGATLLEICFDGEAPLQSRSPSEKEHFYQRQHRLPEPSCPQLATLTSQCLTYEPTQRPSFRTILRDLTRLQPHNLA

| Kd (TYK2 JH2; [2]) [nM] | IC50 [1, 3] [nM] | SMILES | further results |
| --- | --- | --- | --- |
| ≤ 100 | ≤ 500 | CNc1ncc(C#Cc2ncc(OC)cc2CO)c2cc(NC(=O)C3CC3)ncc12 [Example 967, N-[5-[2-[3-(hydroxymethyl)-5-methoxy-2-pyridyl]ethynyl]-8-(methylamino)-2,7-naphthyridin-3-yl]cyclopropanecarboxamide] | – |
| ≤ 100 | ≤ 500 | CNc1ncc(C#Cc2ccc(Oc3ccn(C)n3)cc2)c2cc(NC(=O)C3CC3)ncc12 [Example 971, N-[8-(methylamino)-5-[2-[4-(1-methylpyrazol-3-yl)oxyphenyl]ethynyl]-2,7-naphthyridin-3-yl]cyclopropanecarboxamide] | – |
| ≤ 100 | > 500 | CNc1ncc(-c2ccn(CCc3ncn(C)n3)n2)c2cc(NC(=O)C3CC3)ncc12 [Example 835A, N-(5-(1-(2-(1-methyl-1H-1,2,4-triazol-3-yl)ethyl)-1H-pyrazol-3-yl)-8-(methylamino)-2,7-naphthyridin-3-yl)cyclopropanecarboxamide] | – |
| ≤ 100 | ≤ 500 | CNc1ncc(C#Cc2ccc3nc(C(F)F)n(C)c3c2)c2cc(NC(=O)C3CC3)ncc12 [Example 739, N-(5-((2-(difluoromethyl)-1-methyl-1H-benzo[d]imidazol-6-yl)ethynyl)-8-(methylamino)-2,7-naphthyridin-3-yl)cyclopropanecarboxamide] | – |
| ≤ 100 | ≤ 500 | CNc1ncc(C#Cc2ccc(OCC(C)(C)O)cc2)c2cc(NC(=O)[C@@H]3C[C@@H]3C(F)F)ncc12 (single isomer, unassigned) [Example 756] | – |
| ≤ 100 | ≤ 500 | CNc1ncc(C#Cc2ccc3c(c2)nc(C)n3C(F)F)c2cc(NC(=O)C3CC3)ncc12 [Example 764, A-(5-((1-(difluoromethyl)-2-methyl-1H-benzo[d]imidazol-5-yl)ethynyl)-8-(methylamino)-2,7-naphthyridin-3-yl)cyclopropanecarboxamide] | – |
| ≤ 100 | ≤ 500 | CNc1ncc(C#Cc2ccc3c(c2)CC[C@H](CO)O3)c2cc(NC(=O)C3CC3)ncc12 (single isomer, unassigned) [Example 982] | – |
| ≤ 100 | – | CNc1ncc(-c2nc3cc(N4CCOCC4)ccc3o2)c2cc(NC(=O)[C@@H]3C[C@@H]3C(F)(F)F)ncc12 (single isomer, unassigned) [Example 1067] | IC50 ([1]; IFNa-stimulated pSTAT5 (Tyr694/699), read-out: Cellular_THP1_IFNa-pSTATS_TYK2): ≤ 500 nM |
| ≤ 100 | ≤ 500 | CNc1ncc(C#Cc2ccc3nc(C(C)(F)F)n(C)c3c2)c2cc(NC(=O)C3CC3)ncc12 [Example 773, N-(5-((2-(1,1-difluoroethyl)-1-methyl-1H-benzo[d]imidazol-6-yl)ethynyl)-8-(methylamino)-2,7-naphthyridin-3-yl)cyclopropanecarboxamide] | – |
| ≤ 100 | ≤ 500 | CNc1ncc(C#Cc2ccc(OCF)cn2)c2cc(NC(=O)C3CC3)ncc12 [Example 732, N-(5-((5-(fluoromethoxy)pyridin-2-yl)ethynyl)-8-(methylamino)-2,7-naphthyridin-3-yl)cyclopropanecarboxamide] | – |

Second part, the molecule before the results:

| SMILES | Kd (TYK2 JH2; [2]) [nM] | IC50 [1, 3] [nM] | further results |
| --- | --- | --- | --- |
| CNc1ncc(C#Cc2ccc3c(c2)ncn3CCCC#N)c2cc(NC(=O)C3CC3)ncc12 [Example 695, N-(5-((1-(3-cyanopropyl)-1H-benzo[d]imidazol-5-yl)ethynyl)-8-(methylamino)-2,7-naphthyridin-3-yl)cyclopropanecarboxamide] | ≤ 100 | ≤ 500 | – |
| CNc1ncc(C#Cc2ccc(O[C@@H]3CCOC3)cc2)c2cc(NC(=O)C3CC3)ncc12 [Example 690, (R)—N-(8-(methylamino)-5-((4-((tetrahydrofuran-3-yl)oxy)phenyl)ethynyl)-2,7-naphthyridin-3-yl)cyclopropanecarboxamide] | ≤ 100 | ≤ 500 | – |
| CNc1ncc(C#Cc2nc3ccc(OC)cn3n2)c2cc(NC(=O)C3CC3)ncc12 [Example 676, N-(5-((6-methoxy-[1,2,4]triazolo[1,5-a]pyridin-2-yl)ethynyl)-8-(methylamino)-2,7-naphthyridin-3-yl)cyclopropanecarboxamide] | ≤ 100 | ≤ 500 | – |
| [2H]C([2H])([2H])Nc1ncc(-c2nc3ccc(N4CCOCC4)cn3n2)c2cc(NC(=O)[C@H]3C[C@H]3C)ncc12 [Example 572, (1S,2R)-2-methyl-N-(8-((methyl-d3)amino)-5-(6-morpholino-[1,2,4]triazolo[1,5-a]pyridin-2-yl)-2,7-naphthyridin-3-yl)cyclopropane-1-carboxamide] | – | ≤ 500 | Kd (TYK2 JH2; [4]): ≤ 100 nM |
| CCNc1ncc(-c2nc3cc(N4CCOCC4)ccc3o2)c2cc(NC(=O)C3CC3)ncc12 [Example 458, N-(8-(ethylamino)-5-(5-morpholinobenzo[d]oxazol-2-yl)-2,7-naphthyridin-3-yl)cyclopropanecarboxamide] | – | ≤ 500 | Kd (TYK2 JH2; [4]): ≤ 100 nM |
| CNc1ncc(-c2ncsc2C)c2cc(NC(=O)C3CC3)ncc12 [Example 26, N-(8-(methylamino)-5-(5-methylthiazol-4-yl)-2,7-naphthyridin-3-yl)cyclopropanecarboxamide] | – | – | Kd (TYK2 JH2; [5]): ≤ 100 nM; IC50 [1, 6]: > 500 nM |
| CNc1ncc(COc2ccccc2)c2cc(NC(=O)C3CC3)ncc12 [Example 45, N-(8-(methylamino)-5-(phenoxymethyl)-2,7-naphthyridin-3-yl)cyclopropanecarboxamide] | – | – | Kd (TYK2 JH2; [5]): ≤ 100 nM; IC50 [1, 6]: > 500 nM |
| CNc1ncc(-c2nc3cc(N4CCC(F)(F)CC4)ccc3o2)c2cc(NC(=O)C3CC3)ncc12 [Example 301, N-(5-(5-(4,4-difluoropiperidin-1-yl)benzo[d]oxazol-2-y1)-8-(methylamino)-2,7-naphthyridin-3-yl)cyclopropanecarboxamide] | – | ≤ 500 | Kd (TYK2 JH2; [4]): ≤ 100 nM |
| CNc1ncc(-c2ccc(C#N)cc2)c2cc(NC(=O)C3CC3)ncc12 [Example 37, N-(5-(4-cyanophenyl)-8-(methylamino)-2,7-naphthyridin-3-yl)cyclopropanecarboxamide] | – | – | Kd (TYK2 JH2; [5]): ≤ 100 nM; IC50 [1, 6]: > 500 nM |
| CNc1ncc(-c2nc3cc(N4CC(OC)C4)ccc3o2)c2cc(NC(=O)C3CC3)ncc12 [Example 280, N-(5-(5-(3-methoxyazetidin-1-yl)benzo[d]oxazol-2-y1)-8-(methylamino)-2,7-naphthyridin-3-yl)cyclopropanecarboxamide] | – | ≤ 500 | Kd (TYK2 JH2; [4]): ≤ 100 nM |
| CNc1ncc(-c2nc3cc(C4CCN(C)CC4)ccc3o2)c2cc(NC(=O)C3CC3)ncc12 [Example 361, N-(8-(methylamino)-5-(5-(1-methylpiperidin-4-yl)benzo[d]oxazol-2-yl)-2,7-naphthyridin-3-yl)cyclopropanecarboxamide] | – | ≤ 500 | Kd (TYK2 JH2; [4]): ≤ 100 nM |
| CNc1ncc(-c2ccc(C(=O)C3CC3)cc2)c2cc(NC(=O)C3CC3)ncc12 [Example 144, N-(5-(4-(cyclopropanecarbonyl)phenyl)-8-(methylamino)-2,7-naphthyridin-3-yl)cyclopropanecarboxamide] | – | – | Kd (TYK2 JH2; [5]): ≤ 100 nM; IC50 [1, 6]: > 500 nM |
| C[C@H]1CN(c2ccc3oc(-c4cnc(N)c5cnc(NC(=O)C6CC6)cc45)nc3c2)CCO1 [Example 368, (S)—N-(8-amino-5-(5-(2-methylmorpholino)benzo[d]oxazol-2-yl)-2,7-naphthyridin-3-yl)cyclopropanecarboxamide] | – | ≤ 500 | Kd (TYK2 JH2; [4]): ≤ 100 nM |
| CNc1ncc(-c2ccn(Cc3ncn(C)n3)n2)c2cc(NC(=O)C3CC3)ncc12 [Example 150, N-(5-(1-((1-methyl-1H-1,2,4-triazol-3-yl)methyl)-1H-pyrazol-3-yl)-8-(methylamino)-2,7-naphthyridin-3-yl)cyclopropanecarboxamide] | – | – | Kd (TYK2 JH2; [5]): ≤ 100 nM; IC50 [1, 6]: > 500 nM |
| CNc1ncc(-c2nc3ccc(N4CCCC(F)(F)C4)cn3n2)c2cc(NC(=O)C3CC3)ncc12 [Example 485, N-(5-(6-(3,3-difluoropiperidin-1-yl)-[1,2,4]triazolo[1,5-a]pyridin-2-yl)-8-(methylamino)-2,7-naphthyridin-3-yl)cyclopropanecarboxamide] | – | ≤ 500 | Kd (TYK2 JH2; [4]): ≤ 100 nM |
| CNc1ncc(C#Cc2ccc(CC(F)(F)F)cn2)c2cc(NC(=O)C3CC3)ncc12 [Example 660, N-(8-(methylamino)-5-((5-(2,2,2-trifluoroethyl)pyridin-2-yl)ethynyl)-2,7-naphthyridin-3-yl)cyclopropanecarboxamide] | ≤ 100 | ≤ 500 | – |
| CNc1ncc(-c2nc3cc(Oc4ccn(C)n4)ccc3o2)c2cc(NC(=O)C3CC3)ncc12 [Example 341, N-(5-(5-((1-methyl-1H-pyrazol-3-yl)oxy)benzo[d]oxazol-2-yl)-8-(methylamino)-2,7-naphthyridin-3-yl)cyclopropanecarboxamide] | – | ≤ 500 | Kd (TYK2 JH2; [4]): ≤ 100 nM |
| CNc1ncc(C#Cc2ccc(S(C)(=O)=O)cn2)c2cc(NC(=O)C3CC3)ncc12 [Example 640, N-(8-(methylamino)-5-((5-(methylsulfonyl)pyridin-2-yl)ethynyl)-2,7-naphthyridin-3-yl)cyclopropanecarboxamide] | ≤ 100 | ≤ 500 | – |
